Results published in PubChem BioAssay (NCI).
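Five compound concentrations were applied to cells in 96-well plates for 48 hours; endpoints were derived by simple linear interpolation of the resulting dose-response curve. Abbreviation: GI50, concentration required for 50% inhibition of growth. TGI: concentration producing complete growth inhibition.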

Legend:
Experiment in all cases: NCI tumour cell line growth inhibition, 48 h
[1] = tested on: EKVX NSCLC
[2] = tested on: LOX IMVI melanoma
[3] = tested on: OVCAR-8 ovarian
[4] = tested on: SF-268 CNS
[5] = tested on: 786-0 renal
[6] = tested on: LXFL 529 NSCLC
[7] = tested on: SK-OV-3 ovarian
[8] = tested on: KM12 colon
[9] = tested on: HOP-62 NSCLC
[10] = tested on: M19-MEL melanoma
[11] = tested on: U251 CNS
[12] = tested on: UO-31 renal
[13] = tested on: SN12C renal
[14] = tested on: HCT-116 colon
[15] = tested on: M14 melanoma
[16] = tested on: IGROV1 ovarian
[17] = tested on: SNB-75 CNS
[18] = tested on: SK-MEL-28 melanoma
[19] = tested on: OVCAR-3 ovarian
[20] = tested on: OVCAR-4 ovarian
[21] = tested on: ACHN renal
[22] = tested on: RPMI-8226 leukemia
[23] = tested on: RXF 393 renal
[24] = tested on: UACC-62 melanoma
[25] = tested on: NCI-H23 lung
[26] = tested on: NCI-H226 lung
[27] = tested on: HT29 colon
[28] = tested on: A498 renal
[29] = tested on: SNB-19 CNS
[30] = tested on: MOLT-4 leukemia
[31] = tested on: CCRF-CEM leukemia
[32] = tested on: A549 NSCLC
[33] = tested on: SF-539 CNS
[34] = tested on: NCI-H460 lung
[35] = tested on: DLD-1 colon
[36] = tested on: HL-60(TB) leukemia
[37] = tested on: TK-10 renal
[38] = tested on: SF-295 CNS
[39] = tested on: SW-620 colon
[40] = tested on: SNB-78 CNS
[41] = tested on: UACC-257 melanoma
[42] = tested on: K-562 leukemia
[43] = tested on: OVCAR-5 ovarian
[44] = tested on: MALME-3M melanoma
[45] = tested on: HOP-18 NSCLC
[46] = tested on: KM20L2 colon

NC1CCCCC1N.O=C([O-])P(=O)([O-])[O-].[Na+].[Pt+4] (configuration not stated)
GI50 [1]: > 100 µM | TGI [1]: > 100 µM | GI50 [2]: > 100 µM | TGI [2]: > 100 µM | GI50 [3]: 98.2 µM | TGI [3]: > 100 µM | GI50 [4]: > 100 µM | TGI [4]: > 100 µM | GI50 [5]: > 100 µM | TGI [5]: > 100 µM | GI50 [6]: > 100 µM | TGI [6]: > 100 µM | GI50 [7]: > 100 µM | TGI [7]: > 100 µM | GI50 [8]: > 100 µM | TGI [8]: > 100 µM | GI50 [9]: > 100 µM | TGI [9]: > 100 µM | GI50 [10]: 85.1 µM | TGI [10]: > 100 µM | GI50 [11]: > 100 µM | TGI [11]: > 100 µM | GI50 [12]: > 100 µM | TGI [12]: > 100 µM | GI50 [13]: > 100 µM | TGI [13]: > 100 µM | GI50 [14]: 47.6 µM | TGI [14]: > 100 µM | GI50 [15]: > 100 µM | TGI [15]: > 100 µM | GI50 [16]: > 100 µM | TGI [16]: > 100 µM | GI50 [17]: > 100 µM | TGI [17]: > 100 µM | GI50 [18]: > 100 µM | TGI [18]: > 100 µM | GI50 [19]: > 100 µM | TGI [19]: > 100 µM | GI50 [20]: > 100 µM | TGI [20]: > 100 µM | GI50 [21]: > 100 µM | TGI [21]: > 100 µM | GI50 [22]: 22.2 µM | TGI [22]: > 100 µM | GI50 [23]: > 100 µM | TGI [23]: > 100 µM | GI50 [24]: > 100 µM | TGI [24]: > 100 µM | GI50 [25]: > 100 µM | TGI [25]: > 100 µM | GI50 [26]: > 100 µM | TGI [26]: > 100 µM | GI50 [27]: > 100 µM | TGI [27]: > 100 µM | GI50 [28]: > 100 µM | TGI [28]: > 100 µM | GI50 [29]: > 100 µM | TGI [29]: > 100 µM | GI50 [30]: 29.1 µM | TGI [30]: > 100 µM | GI50 [31]: > 100 µM | TGI [31]: > 100 µM | GI50 [32]: > 100 µM | TGI [32]: > 100 µM | GI50 [33]: > 100 µM | TGI [33]: > 100 µM | GI50 [34]: 55.5 µM | TGI [34]: > 100 µM | GI50 [35]: > 100 µM | TGI [35]: > 100 µM | GI50 [36]: 75.9 µM | TGI [36]: > 100 µM | GI50 [37]: > 100 µM | TGI [37]: > 100 µM | GI50 [38]: > 100 µM | TGI [38]: > 100 µM | GI50 [39]: 28.8 µM | TGI [39]: > 100 µM | GI50 [40]: > 100 µM | TGI [40]: > 100 µM | GI50 [41]: > 100 µM | TGI [41]: > 100 µM | GI50 [42]: > 100 µM | TGI [42]: > 100 µM | GI50 [43]: > 100 µM | TGI [43]: > 100 µM | GI50 [44]: 84.3 µM | TGI [44]: > 100 µM | GI50 [45]: > 100 µM | TGI [45]: > 100 µM | GI50 [46]: > 100 µM | TGI [46]: > 100 µM
